According to patent publication US20080200403A1, “9A-Carbamoyl and Thiocarbamoyl Azalides with Anti-Inflammatory Activity” (GLAXOSMITHKLINE, priority 2005, published 2008):

Columns and labels:
[1] = test system: granulocytes; test: Accumulation in granulocytes (LC-MS); type: in vitro ADME; details: 180 min
Description: Granulocytes were obtained from heparinized whole blood using density gradient centrifugation. Erythrocytes were sedimented on 3% dextran T-500 (Amersham Pharmacia Biotech AB, Uppsala, Sweden). Leukocytes were centrifuged on Ficoll (Amersham Pharmacia Biotech AB, Uppsala, Sweden) for 35 min at 600 g at 20° C. The pellet of granulocytes was cleared from remaining erythrocytes by a brief hypotonic lysis.
7.5×10^6 granulocytes, isolated as described above, were suspended in 3 mL of RPMI 1640 (Institute of Immunology, Croatia) containing 10 μM of tested macrolide. Samples were incubated at 37° C. for 180 min. Following incubation, the samples were centrifuged through the layer of Poly(dimethylsiloxane-co-diphenylsiloxane), dihydroxy terminated—silicone oil (Aldrich Chemical Company, Milwaukee, USA). The pellet was resuspended in 0.5% Triton X-100 (Sigma, St. Louis, USA) in deionized water (MilliQ, Millipore Corporation, Bedford, USA). The suspension was sonicated, proteins were precipitated with acetonitrile, and the concentration of macrolide in the supernatants was determined by liquid chromatography-mass spectrometry (LC-MS).
Intracellular concentrations of the test compounds were calculated from the mean cell number recovered after centrifuging through silicone oil. According to the literature, about 1 million neutrophils is considered to have a volume of 0.24 μL (Vazifeh et al., Antimicrob Agents Chemo. 1997; 41: 2099-2107). To estimate the extent of macrolide accumulation, the intracellular to extracellular concentration ratio (I/E) was calculated, where E (due to a large volume of incubation medium) was taken as constant (10 μM). Results are expressed relative to azithromycin according to the following equation: % of azithromycin uptake=(I/E of a substance/I/E of azithromycin)×100. I/E values obtained for azithromycin were 164±10.

[2] = test system: IL-5; test: Inhibition of IL-5 production by stimulated human PBMC in vitro; type: cell-based; details: PHA stimulated, 3 days
Description: Heparinized peripheral blood was obtained from healthy donors, and peripheral blood mononuclear cells (PBMC) were isolated by Histopaque 1077 (Sigma, USA) density centrifugation on 400 g for 30 minutes. Collected PBMC were centrifuged in plasma on 400 g/10 min, resuspended and washed in RPMI 1640 (Institute of Immunology, Croatia) by centrifugation.
Peripheral blood mononuclear cells (PBMC), isolated as described above, were seeded in a 48-well plate at a concentration of 1×10^6 cells per well in the RPMI culture medium described above. Cells were stimulated with 10 μg/mL phytohaemagglutinin (PHA) (Sigma, USA) and incubated at 37° C., 5% CO2 in 90% humidity with tested compounds (10 and 50 μM) for 3 days. Cytokine concentrations were determined in supernatants by sandwich ELISA, using capture and detection antibodies (R&D, USA) according to the manufacturer's recommendations.
Inhibition (as percentage) was calculated using the following formula: % inhibition=(1−concentration of cytokines in sample/concentration of cytokines in positive control)×100. The positive control refers to stimulated samples, not treated with substances.

CCC1OC(=O)C(C)C(OC2CC(C)(OC)C(O)C(C)O2)C(C)C(OC2OC(C)CC(N(C)C)C2O)C(C)(O)CC(C)CN(C(=S)Nc2cccc(F)c2)C(C)C(O)C1(C)O (stereo not drawn) [Compound 3]
% of azithromycin uptake ([1]; granulocytes, 10 μM macrolide, 37° C., (I/E of substance/I/E of azithromycin)×100): 93% | Percentage of inhibition of IL-5 production ([2]; compound 10 μM): 80% | Percentage of inhibition of IL-5 production ([2]; compound 50 μM): 78%

CC[C@H]1OC(=O)[C@H](C)[C@@H](O[C@H]2C[C@@](C)(OC)[C@@H](O)[C@H](C)O2)[C@H](C)[C@@H](O[C@@H]2O[C@H](C)C[C@H](N(C)C)[C@H]2O)[C@](C)(OC)C[C@@H](C)C(=O)[C@H](C)[C@@H](O)[C@]1(C)O [Clarithromycin, clarithromycin, reference compound]
inhibition at 10 µM ([2]; Homo sapiens, 72 h, compound 10 μM, read-out: Percentage of inhibition of IL-5 production): 13% | inhibition at 50 µM ([2]; Homo sapiens, 72 h, compound 50 μM, read-out: Percentage of inhibition of IL-5 production): 47%

CC[C@H]1OC(=O)[C@H](C)[C@@H](O[C@H]2C[C@@](C)(OC)[C@@H](O)[C@H](C)O2)[C@H](C)[C@@H](O[C@@H]2O[C@H](C)C[C@H](N(C)C)[C@H]2O)[C@](C)(O)C[C@@H](C)CN(C)[C@H](C)[C@@H](O)[C@]1(C)O [Azithromycin, azithromycin, reference compound]
% of azithromycin uptake ([1]; 10 μM): 100% | intracellular to extracellular concentration ratio (I/E) ([1]; 10 μM): 164±10

CCC1OC(=O)C(C)C(O)C(C)C(OC2OC(C)CC(N(C)C)C2O)C(C)(O)CC(C)CN(C(=S)NCc2ccccc2)C(C)C(O)C1(C)O (stereo not drawn) [Compound 1]
Percentage of inhibition of IL-5 production ([2]; compound 10 μM): 14% | Percentage of inhibition of IL-5 production ([2]; compound 50 μM): 73%
